One data set concerns S. epidermidis ATCC12228. Description: Antimicrobial activity, microtiter dilution MIC. It counts as cell-based, Staphylococcus epidermidis. Conditions: G+; MH medium, 5 × 10^5 CFU/mL, 37 °C, 24 h, triplicate. As to the method: (§1) The antimicrobial activity of the peptides was determined by the standard microtiter dilution method and indicated as MIC (minimal inhibitory concentration) as described previously. Briefly, bacteria were cultured in Mueller–Hinton (MH) medium overnight at 37 °C, diluted to a final inoculum of 5 × 10^5 colony-forming units (CFU)/mL with MH and loaded into 96-well microtiter plates (90 μL/well) with serial dilution of peptides (10 μL/well), with a further incubation at 37 °C for 24 h. MIC was expressed as the lowest peptide concentration that inhibited the growth of bacteria. The antimicrobial assays were repeated in triplicate.

A further data set has as its system E. coli ATCC25922. Description: Antimicrobial activity, microtiter dilution MIC. It counts as cell-based, Escherichia coli. The following applies: G−; MH medium, 5 × 10^5 CFU/mL, 37 °C, 24 h, triplicate. As to the method: as §1
Another data set deals with MIA PaCa-2. Description: MTT cell viability assay. The data set is classed as cell-based, human. Conditions: MIA PaCa-2, MTT, 24 h; mean ± SEM of three independent determinations. As to the method: (§2) HeLa, MIA PaCa-2, HPAC, and Bxpc-3 cells were maintained in Dulbecco’s modified Eagle medium) with 10% fetal bovine serum, penicillin (100 U/mL), and streptomycin ([…]) in a humid atmosphere at 37 °C with 5% CO2. The effect of the peptides on the survival of HeLa, MIA PaCa-2, HPAC, and Bxpc-3 cells was determined by 3-(4,5-dimethyl-2-thiazolyl)-2,5-diphenyl-2H-tetrazolium bromide (MTT) assay, as described in a previous study. Briefly, cells were seeded in 96-well plates at a density of 5000 per well. After overnight incubation, cells were incubated, in the absence, or presence of various concentrations of peptides for 24 h. Then, the formazan crystals formed by MTT were dissolved with dimethyl sulfoxide (DMSO) and the absorbance was determined at 492 nm with a microplate reader (GF-M3000; Gaomi Caihong Analytical Instruments Co., Shandong, China). The results were expressed as IC50 values, representing the concentration at which cell viability was reduced by 50%. The cytotoxicity assays were repeated in triplicate.
A general note: Tetrazolium assays rely on reduction of a dye to a coloured formazan, in cell work by metabolically active cells.

The test system of the next data set is HeLa. Description: MTT cell viability assay. The following applies: 24 h, mean ± SEM of three independent determinations. It counts as cell-based, human. As to the method:
as §2

Another data set relates to HPAC. Briefly: MTT cell viability assay. The data set is classed as cell-based, human. The following applies: 24 h, mean ± SEM of three independent determinations. As to the method:
as §2

The subject of a further data set is BxPC-3. Briefly: MTT cell viability assay. It counts as cell-based, human. The following applies: BxPC-3, MTT, 24 h; mean ± SEM of three independent determinations. As to the method:
as §2

Data set [1] can be described thus: RP-HPLC retention time as relative hydrophobicity. It counts as physicochemical. The following applies: 25 °C, used by the paper as measure of relative hydrophobicity. As to the method:
The RP-HPLC retention time has been widely used to represent the relative hydrophobicity of peptides in many studies.The relative hydrophobicity of the peptides was determined by the RP-HPLC retention times at 25 °C. The change in hydrophobicity of the peptides caused by D-amino acid substitutions was mainly due to the disruption of the helical structure.

A short description of data set [2]: Circular dichroism (CD) secondary structure. The data set is classed as physicochemical. The following applies: for [θ]222, benign / [θ]222, 50% TFE: CD, 75 μM peptide, 25 °C; for [θ]222, benign: KP buffer (100 mM KCl, 50 mM KH2PO4/K2HPO4, pH 7.4); for [θ]222, 50% TFE / α-Helix (%), 50% TFE (relative helicity): KP buffer with 50% TFE; for α-Helix (%), 50% TFE (relative helicity) / α-Helix (%), benign: relative to molar ellipticity of V13K in 50% TFE; for α-Helix (%), benign: KP buffer. An excerpt: The influence of the amino acid substitutions on the peptide secondary structure were investigated using circular dichroism (CD) spectroscopy under benign conditions (KP buffer) and under conditions designed to mimic the hydrophobic environment of the membrane (KP buffer with 50% TFE). D-amino acid substitutions reduced the helicity of the peptide analogs relative to that of peptide V13K, in both KP buffer and KP buffer with 50% TFE. […] As shown in Table 2 and Figure S1, the values of the relative helicity of peptides with polar face substitutions are in the order of K14D (76.99%) > S11D/K14D (51.33%) > S11D/K14D/T15D (38.67%). Similarly, the relative helicity of the peptides with substitutions on the non-polar face follows the same trend: A12D (70.83%) > F9D/A12D (38.26%) > F9D/A12D/V16D (36.41%). Since the values of the relative helicity of the peptides with D-amino acid substitutions on the non-polar face were less than those peptide analogs with the same number of D-amino acid substitutions on the polar face, it is clear that the amino acid residues on the non-polar face may be more important for stabilizing the α-helical structure than residues on the polar face.
The secondary structures of the peptides were examined using a Jasco J-810 CD spectrometer (Jasco, Easton, MD, USA) at 25 °C as described previously. […] The mean residue molar ellipticities were calculated according to the equation [θ] = θ/10lCMn, in which, θ represents the ellipticity in millidegrees, l is the optical path length of the cuvette in centimeters, CM is the peptide concentration in mol/L, and n is the number of residues in the peptide. The mean residue molar ellipticities at 222 nm, [θ]222 (degree·cm^2·dmol^−1), were used to calculate the relative helical content of the peptides.
A general note: Circular dichroism is the unequal absorption of left and right circularly polarised light.

The next data set relates to S. aureus ATCC25923. Description: Antimicrobial activity, microtiter dilution MIC. It counts as cell-based, Staphylococcus aureus. The following applies: G+; MH medium, 5 × 10^5 CFU/mL, 37 °C, 24 h, triplicate. As to the method:
as §1

The test system of another data set is P. aeruginosa ATCC27853. Description: Antimicrobial activity, microtiter dilution MIC. It counts as cell-based, Pseudomonas aeruginosa. Conditions: G−; MH medium, 5 × 10^5 CFU/mL, 37 °C, 24 h, triplicate. As to the method:
as §1

In data set [3] the test system is human red blood (hRBC) cells. Briefly: Hemolytic activity assay. It counts as cell-based. The following applies: for MHC (minimal hemolytic concentration): 2% human RBC in PBS, 37 °C, 2 h, absorbance 578 nm, triplicate. As to the method:
The […] of the peptides was measured by a hemolytic activity assay as described previously. Briefly, healthy human RBCs were collected using an anticoagulation tube with EDTAK2 and centrifuged at 1000 rpm for 5 min. The erythrocytes were washed three times, then diluted to a concentration of 2% in phosphate-buffered saline (PBS). The peptides were serially diluted in PBS and 70 μL of the peptide solutions and 2% RBC suspension were added simultaneously to each well of a 96-well plate (round bottom) for a further incubation at 37 °C for 2 h. Then, the plates were centrifuged for 10 min at 3000 rpm and the supernatant (90 μL) was transferred to a 96-well plate (flat bottom). The absorbance of the supernatant was measured on a microplate reader at 578 nm. Erythrocytes in PBS and distilled water were used as the negative (0%) and positive (100%) controls, respectively. The hemolytic activity was calculated as the percentage of experimental group over positive control (100%), after subtraction of negative control (0%). The hemolytic assays were repeated in triplicate.

Each structure is given as a SMILES string. In brackets after ≈: the same amount, converted by molar mass. Bounds are passed on as bounds.

As a reminder, the MIC is the lowest concentration found to suppress growth. Higher therefore signals a need for much substance. Broadly, the IC50 is the concentration that inhibits the measured activity by half. A higher IC50 goes with lower potency. For the compound `CC[C@H](C)[C@H](NC(=O)[C@H](C)NC(=O)[C@H](CCCCN)NC(=O)[C@H](CC(C)C)NC(=O)[C@H](C)NC(=O)[C@@H](NC(=O)[C@H](Cc1c[nH]cn1)NC(=O)[C@H](CC(C)C)NC(=O)[C@@H](NC(=O)[C@@H](NC(=O)[C@@H](CCCCN)NC(=O)[C@H](CCCCN)NC(=O)[C@H](C)NC(=O)[C@@H](CO)NC(=O)[C@H](CCCCN)NC(=O)[C@H](Cc1ccccc1)NC(=O)[C@@H](NC(=O)[C@H](CCCCN)NC(=O)[C@H](CC(C)C)NC(=O)[C@H](Cc1ccccc1)NC(=O)[C@H](CO)NC(=O)[C@H](CCCCN)NC(=O)[C@H](Cc1c[nH]c2ccccc12)NC(=O)[C@H](CCCCN)NC(C)=O)[C@@H](C)O)[C@@H](C)O)C(C)C)[C@@H](C)O)C(=O)N[C@@H](CO)C(=O)N[C@@H](CO)C(N)=O` [S11D/K14D], the MIC in the data set with S. epidermidis ATCC12228 was 16 µM (≈ 47.9 µg/mL); in the data set on E. coli ATCC25922 it was 64 µM (≈ 191 µg/mL); against S. aureus ATCC25923, 64 µM (≈ 191 µg/mL); against P. aeruginosa ATCC27853, 32 µM (≈ 95.7 µg/mL). The concentration for half-maximal inhibition (IC50) in the data set with MIA PaCa-2 was found to be 41.3 ± 2.6 µM; in the data set with HeLa, 30.6 ± 0.5 µM; in the data set on HPAC, 25.5 ± 0.5 µM; in the data set on BxPC-3, 22.4 ± 2.3 µM. Besides, the “tR (RP-HPLC retention time), relative hydrophobicity” value (“tR … relative hydrophobicity” for short) in data set [1] amounted to 40.77 min. Moreover, the “[θ]222, benign” value in data set [2] is −3524.85 degree·cm^2·dmol^−1. In data set [2], the “[θ]222, 50% TFE” value is −25,931.3 degree·cm^2·dmol^−1. In addition, the “α-Helix (%), 50% TFE (relative helicity)” value in data set [2] came out at 51.33%. Besides, the “α-Helix (%), benign” value in data set [2] is 7.0%. In addition, in data set [3], the “MHC (minimal hemolytic concentration)” value worked out at 125 µM.

Consider `CC[C@H](C)[C@H](NC(=O)[C@H](C)NC(=O)[C@H](CCCCN)NC(=O)[C@H](CC(C)C)NC(=O)[C@H](C)NC(=O)[C@@H](NC(=O)[C@H](Cc1c[nH]cn1)NC(=O)[C@H](CC(C)C)NC(=O)[C@@H](NC(=O)[C@@H](NC(=O)[C@H](CCCCN)NC(=O)[C@H](CCCCN)NC(=O)[C@@H](C)NC(=O)[C@H](CO)NC(=O)[C@H](CCCCN)NC(=O)[C@@H](Cc1ccccc1)NC(=O)[C@@H](NC(=O)[C@H](CCCCN)NC(=O)[C@H](CC(C)C)NC(=O)[C@H](Cc1ccccc1)NC(=O)[C@H](CO)NC(=O)[C@H](CCCCN)NC(=O)[C@H](Cc1c[nH]c2ccccc12)NC(=O)[C@H](CCCCN)NC(C)=O)[C@@H](C)O)[C@@H](C)O)C(C)C)[C@@H](C)O)C(=O)N[C@@H](CO)C(=O)N[C@@H](CO)C(N)=O` [F9D/A12D], for which the MIC with S. epidermidis ATCC12228 is 64 µM (≈ 191 µg/mL); against E. coli ATCC25922, 125 µM (≈ 374 µg/mL); in the data set with S. aureus ATCC25923, 125 µM (≈ 374 µg/mL); in the data set with P. aeruginosa ATCC27853, 32 µM (≈ 95.7 µg/mL). Moreover, the IC50 in the data set with MIA PaCa-2 was 38.8 ± 2.9 µM; with HeLa, 59.8 ± 0.5 µM; with HPAC it was 42.4 ± 3 µM; in the data set on BxPC-3, 125 ± 3.7 µM. For the same compound, the “tR … relative hydrophobicity” value in data set [1] worked out at 40.04 min. For the same compound, the “[θ]222, benign” value in data set [2] was −2319.89 degree·cm^2·dmol^−1. For the same compound, the “[θ]222, 50% TFE” value in [2] was −19,328.6 degree·cm^2·dmol^−1. Moreover, the “α-Helix (%), 50% TFE (relative helicity)” value in data set [2] came to 38.26%. Further, the “α-Helix (%), benign” value in [2] turned out to be 4.6%. Besides, the “MHC (minimal hemolytic concentration)” value in data set [3] was determined as 250 µM.

Turning to `CC[C@H](C)[C@H](NC(=O)[C@H](C)NC(=O)[C@H](CCCCN)NC(=O)[C@H](CC(C)C)NC(=O)[C@H](C)NC(=O)[C@@H](NC(=O)[C@H](Cc1c[nH]cn1)NC(=O)[C@H](CC(C)C)NC(=O)[C@H](NC(=O)[C@@H](NC(=O)[C@H](CCCCN)NC(=O)[C@H](CCCCN)NC(=O)[C@@H](C)NC(=O)[C@H](CO)NC(=O)[C@H](CCCCN)NC(=O)[C@@H](Cc1ccccc1)NC(=O)[C@@H](NC(=O)[C@H](CCCCN)NC(=O)[C@H](CC(C)C)NC(=O)[C@H](Cc1ccccc1)NC(=O)[C@H](CO)NC(=O)[C@H](CCCCN)NC(=O)[C@H](Cc1c[nH]c2ccccc12)NC(=O)[C@H](CCCCN)NC(C)=O)[C@@H](C)O)[C@@H](C)O)C(C)C)[C@@H](C)O)C(=O)N[C@@H](CO)C(=O)N[C@@H](CO)C(N)=O` [F9D/A12D/V16D], the MIC in the data set on S. epidermidis ATCC12228, against E. coli ATCC25922, with S. aureus ATCC25923 and against P. aeruginosa ATCC27853 was 125 µM (≈ 374 µg/mL) each time. For the same compound, the IC50 in the data set on MIA PaCa-2 stood at 57.9 ± 2.8 µM; in the data set with HeLa, 125 ± 3.4 µM; in the data set with HPAC, 95.6 ± 1.8 µM; with BxPC-3 it was 125 ± 1.8 µM. The “tR … relative hydrophobicity” value in data set [1] amounted to 39.06 min. Further, the “[θ]222, benign” value in data set [2] is −1907.83 degree·cm^2·dmol^−1. The “[θ]222, 50% TFE” value in [2] is listed as −18,393.1 degree·cm^2·dmol^−1. Also, the “α-Helix (%), 50% TFE (relative helicity)” value in [2] amounted to 36.41%. In addition, the “α-Helix (%), benign” value in data set [2] is on record as 3.8%. In addition, the “MHC (minimal hemolytic concentration)” value in [3] was above 500 µM. In addition, the “Hemolytic activity compared with V13K” value in [3] (human red blood cells) is recorded as “much less hemolytic activity than V13K”.

The values are drawn from article PMC5796017, “Enantiomeric Effect of D-Amino Acid Substitution on the Mechanism of Action of α-Helical Membrane-Active Peptides” (International Journal of Molecular Sciences, 2017).
